Assay results taken from patent US20240316196A1, “METHODS AND COMPOSITIONS FOR DIFFERENTIATION OF PLURIPOTENT STEM CELLS AND DERIVED NATURAL KILLER CELLS” (NUWACELL BIOTECHNOLOGIES CO., LTD., priority 2022, published 2024).

Key:
iNK cells = test: Stage 3 expansion and maturation of immature iNK cells co-cultured with feeder cells; assay type: cell-based, human; settings: IL-18 (10-50 ng/mL) with IL-2 (100 IU/mL) in Stage 3 vs IL-2 only, Day 14 of co-culture (FIG. 13B)
Experimental: (§1) hiPSCs were prepared as described in CN108373998B. On Day −1, Embryoid body (EB) formation (Stage 1-1) was carried out by placing individualized hiPSCs in E8 medium containing 10 μM Blebbistatin in T25 flasks on a bellydancer and culture overnight. On Day 0, lateral mesoderm differentiation (Stage 1-2) was initiated by changing the medium to a Stage 1-2 differentiation medium comprising IF-4 basal medium and supplemented with BMP4 (25 ng/mL), VEGF (15 ng/mL), bFGF (0.5 ng/mL) and CHIR99021 (4 μM) for 2 days. On Day 2, lateral mesoderm differentiation (Stage 1-3) continued for 1 day in a Stage 1-3 differentiation medium comprising IF-4 basal medium and supplemented with BMP4 (25 ng/mL), VEGF (15 ng/mL) and bFGF (0.5 ng/mL) and CHIR99021 (1 μM). On Day 3, HE specification (Stage 1-4) was initiated by adding a Stage 1-4 differentiation medium comprising IF-4 basal medium and supplemented with VEGF (15 ng/mL), bFGF (5 ng/mL), XAV939 (5 μM) for 1 day. […] On Day 14 of co-culture, iNK cells were collected and stained with CD56-PE antibody (BD, #555516), and the percentage of CD56+ cells was analyzed by flow cytometry.
hiPSCs were prepared as described in CN108373998B. […] D-1 and DO cells were analyzed by Microscopy. […] At the end of Stage 1-4, cells were analyzed by Microscopy and FACS. […] At the end of Stage 1-5, cells were analyzed by Microscopy and FACS. […]

K562 cells = test: Cytotoxicity of Stage 3 iNK cells towards K562 cells (CFSE/7AAD assay); assay type: cell-based; settings: added to Stage 3 medium (IL-10 20 ng/mL, IL-18 50 ng/mL); 4 hr co-culture, E:T 3:1 (FIG. 13A)
Experimental: as §1, with “ng/mL), VEGF (50 ng/mL) and” for “ng/mL), VEGF (15 ng/mL) and”, “On Day 11 of co-culture,” for “On Day 14 of co-culture,”, “(BD, #555516), the percentage” for “(BD, #555516), and the percentage”, “flow cytometry. The cytotoxicity of Stage 3 iNK cells towards K562 cells was detected by CFSE/7AAD assay after 4 hr co-culture at E:T of 3:1.” for “flow cytometry.”

**Q.** “IL-18: interleukin added to Stage 3 expansion and maturation medium” was tested. Which “expansion fold of iNK cells” value (iNK cells) did it give?
**A.** The value was “improve the expansion fold”.

**Q.** And the “cytotoxicity of iNK cells towards K562 cells” value (K562 cells)?
**A.** The value was “significantly improve”.
